Patent US20260262643A1, “HERBICIDAL BENZOXAZINES” (FMC CORPORATION, priority 2022, published 2026)

How the values were obtained:
[1] = system: barnyardgrass; assay: Test C preemergence; format: in vivo, Echinochloa crusgalli
Outline: (§1)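 Seeds in loam–sand blend received preemergence directed soil spray of test chemicals in non-phytotoxic solvent with surfactant; postemergence treatment was applied at one- to two-leaf stage (2–10 cm). After 10 days in greenhouse, injury rated visually versus untreated controls, 0 (no effect) to 100 (complete control).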

[2] = system: blackgrass; assay: Test C preemergence; format: in vivo, Alopecurus myosuroides
Outline: as §1

[3] = system: corn; assay: Test C preemergence; format: in vivo, Zea mays
Outline: as §1

[4] = system: green foxtail; assay: Test C preemergence; format: in vivo, Setaria viridis
Outline: as §1

[5] = system: kochia; assay: Test C preemergence; format: in vivo, Bassia scoparia
Outline: as §1

[6] = system: oat, wild; assay: Test C preemergence; format: in vivo, Avena fatua
Outline: as §1

[7] = system: pigweed, palmer; assay: Test C preemergence; format: in vivo, Amaranthus palmeri
Outline: as §1

[8] = system: ragweed; assay: Test C preemergence; format: in vivo, Ambrosia artemisiifolia
Outline: as §1

[9] = system: ryegrass, Italian; assay: Test C preemergence; format: in vivo, Lolium multiflorum
Outline: as §1

[10] = system: soybean; assay: Test C preemergence; format: in vivo, Glycine max
Outline: as §1

[11] = system: wheat; assay: Test C preemergence; format: in vivo, Triticum aestivum
Outline: as §1

[12] = system: barnyardgrass; assay: Test C postemergence; format: in vivo, Echinochloa crusgalli; conditions: 10 days, 0 to 100 scale (0 no effect, 100 complete control)
Outline: as §1

[13] = system: blackgrass; assay: Test C postemergence; format: in vivo, Alopecurus myosuroides; conditions: 10 days, 0 to 100 scale (0 no effect, 100 complete control)
Outline: as §1

[14] = system: corn; assay: Test C postemergence; format: in vivo, Zea mays; conditions: 10 days, 0 to 100 scale (0 no effect, 100 complete control)
Outline: as §1

[15] = system: green foxtail; assay: Test C postemergence; format: in vivo, Setaria viridis; conditions: 10 days, 0 to 100 scale (0 no effect, 100 complete control)
Outline: as §1

[16] = system: kochia; assay: Test C postemergence; format: in vivo, Bassia scoparia; conditions: 10 days, 0 to 100 scale (0 no effect, 100 complete control)
Outline: as §1

[17] = system: oat, wild; assay: Test C postemergence; format: in vivo, Avena fatua; conditions: 10 days, 0 to 100 scale (0 no effect, 100 complete control)
Outline: as §1

[18] = system: pigweed, palmer; assay: Test C postemergence; format: in vivo, Amaranthus palmeri; conditions: 10 days, 0 to 100 scale (0 no effect, 100 complete control)
Outline: as §1

[19] = system: ragweed; assay: Test C postemergence; format: in vivo, Ambrosia artemisiifolia; conditions: 10 days, 0 to 100 scale (0 no effect, 100 complete control)
Outline: as §1

[20] = system: ryegrass, Italian; assay: Test C postemergence; format: in vivo, Lolium multiflorum; conditions: 10 days, 0 to 100 scale (0 no effect, 100 complete control)
Outline: as §1

[21] = system: soybean; assay: Test C postemergence; format: in vivo, Glycine max; conditions: 10 days, 0 to 100 scale (0 no effect, 100 complete control)
Outline: as §1

[22] = system: wheat; assay: Test C postemergence; format: in vivo, Triticum aestivum; conditions: 10 days, 0 to 100 scale (0 no effect, 100 complete control)
Outline: as §1

[23] = system: galium; assay: Test C postemergence; format: in vivo, Galium aparine; conditions: 10 days, 0 to 100 scale (0 no effect, 100 complete control)
Outline: as §1

[24] = system: horseweed; assay: Test C postemergence; format: in vivo, Erigeron canadensis; conditions: 10 days, 0 to 100 scale (0 no effect, 100 complete control)
Outline: as §1

[25] = system: barnyardgrass; assay: Test D flooded paddy test; format: in vivo, Echinochloa crus-galli; conditions: 250 g ai/ha, applied to paddy water, visual rating after 13 to 14 days, scale 0 to 100 (0 no effect, 100 complete control)
Outline: (§2)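 2-leaf plants; flood 3 cm above soil; compound dosed into paddy water; greenhouse 13–14 d; visual rating vs controls, 0–100 (100 = complete control); dash = not tested.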

[26] = system: ducksalad; assay: Test D flooded paddy test; format: in vivo, Heteranthera limosa; conditions: 250 g ai/ha, applied to paddy water, visual rating after 13 to 14 days, scale 0 to 100 (0 no effect, 100 complete control)
Outline: as §2

[27] = system: rice; assay: Test D flooded paddy test; format: in vivo, Oryza sativa; conditions: 250 g ai/ha, applied to paddy water, visual rating after 13 to 14 days, scale 0 to 100 (0 no effect, 100 complete control)
Outline: as §2

[28] = system: sedge, umbrella; assay: Test D flooded paddy test; format: in vivo, Cyperus difformis; conditions: 250 g ai/ha, applied to paddy water, visual rating after 13 to 14 days, scale 0 to 100 (0 no effect, 100 complete control)
Outline: as §2

[29] = 500 g ai/ha, preemergence, 0 to 100 scale (0 no effect, 100 complete control)
[30] = Preemergence, 125 g ai/ha, 0 to 100 scale, 0 no effect, 100 complete control

## COC(C)c1ncn(-c2ccc(C)c(C(=O)N3CC(C)Oc4c(Cl)cccc43)c2)n1 (mixture of isomers) [Compound 359]
[1]; [29]
  Barnyardgrass plant response rating: 100
[1]; [30]
  Plant response rating, Barnyardgrass: 100
[2]; [29]
  Blackgrass plant response rating: 100
[2]; [30]
  Plant response rating, Blackgrass: 80
[3]; [29]
  Corn plant response rating: 30
[3]; [30]
  Plant response rating, Corn: 20
[4]; [29]
  Foxtail, Green plant response rating: 100
[4]; [30]
  Plant response rating, Foxtail, Green: 100
[5]; [29]
  Kochia plant response rating: 100
[5]; [30]
  Plant response rating, Kochia: 100
[6]; [29]
  Oat, Wild plant response rating: 90
[6]; [30]
  Plant response rating, Oat, Wild: 90
[7]; [29]
  Pigweed, Palmer plant response rating: 100
[7]; [30]
  Plant response rating, Pigweed, Palmer: 90
[8]; [29]
  Ragweed plant response rating: 100
[8]; [30]
  Plant response rating, Ragweed: 0
[9]; [29]
  Ryegrass, Italian plant response rating: 100
[9]; [30]
  Plant response rating, Ryegrass, Italian: 90
[10]; [29]
  Soybean plant response rating: 100
[10]; [30]
  Plant response rating, Soybean: 80
[11]; [29]
  Wheat plant response rating: 80
[11]; [30]
  Plant response rating, Wheat: 30
[12]; 500 g ai/ha, postemergence
  Plant response rating, Barnyardgrass: 90
[12]; Postemergence, 125 g ai/ha
  Plant response rating, Barnyardgrass: 30
[13]; 500 g ai/ha, postemergence
  Plant response rating, Blackgrass: 100
[13]; Postemergence, 125 g ai/ha
  Plant response rating, Blackgrass: 60
[14]; 500 g ai/ha, postemergence
  Plant response rating, Corn: 80
[14]; Postemergence, 125 g ai/ha
  Plant response rating, Corn: 40
[15]; 500 g ai/ha, postemergence
  Plant response rating, Foxtail, Green: 80
[15]; Postemergence, 125 g ai/ha
  Plant response rating, Foxtail, Green: 50
[16]; 500 g ai/ha, postemergence
  Plant response rating, Kochia: 80
[16]; Postemergence, 125 g ai/ha
  Plant response rating, Kochia: 50
[17]; 500 g ai/ha, postemergence
  Plant response rating, Oat, Wild: 90
[17]; Postemergence, 125 g ai/ha
  Plant response rating, Oat, Wild: 60
[18]; 500 g ai/ha, postemergence
  Plant response rating, Pigweed, Palmer: 100
[18]; Postemergence, 125 g ai/ha
  Plant response rating, Pigweed, Palmer: 60
[19]; 500 g ai/ha, postemergence
  Plant response rating, Ragweed: 80
[19]; Postemergence, 125 g ai/ha
  Plant response rating, Ragweed: 60
[20]; 500 g ai/ha, postemergence
  Plant response rating, Ryegrass, Italian: 100
[20]; Postemergence, 125 g ai/ha
  Plant response rating, Ryegrass, Italian: 90
[21]; 500 g ai/ha, postemergence
  Plant response rating, Soybean: 100
[21]; Postemergence, 125 g ai/ha
  Plant response rating, Soybean: 100
[22]; 500 g ai/ha, postemergence
  Plant response rating, Wheat: 90
[22]; Postemergence, 125 g ai/ha
  Plant response rating, Wheat: 30
[23]; 500 g ai/ha, postemergence
  Plant response rating, Galium: 100
[23]; Postemergence, 125 g ai/ha
  Plant response rating, Galium: 100
[24]; 500 g ai/ha, postemergence
  Plant response rating, Horseweed: 90
[24]; Postemergence, 125 g ai/ha
  Plant response rating, Horseweed: 70
[25]
  Plant response rating, Barnyardgrass (Flood): 15
[26]
  Plant response rating, Ducksalad (Flood): 60
[27]
  Plant response rating, Rice (Flood): 10
[28]
  Plant response rating, Sedge, Umbrella (Flood): 65
